Earlier results in patent US8158770B2, “Content dependent inhibitors of cytidine deaminases and uses thereof” (University of Rochester, priority 2004, dated 2012).

Experiments:
[1] = by comparison to 5-aza-dC and ara-C
[2] = by comparison to 5-aza-dC and ara-C; remark: listed apart in the source

chemically stable in aqueous solution, up to pH [1]: ≤ 12 pH
Compound: O=c1ncccn1[C@@H]1O[C@H](CO)[C@@H](O)[C@H]1O [zebularine, 1-(beta-D-ribofuranosyl)-1,2-dihydropyrmidin-2-one]
cytotoxicity [2]: considerably less cytotoxic
